Source: BindingDB's records for patent US20240190862 (Amgen, 2024)

What was measured:
[1] = target: T1, GTPase KRas [1-169,G12C,C118A] (Homo sapiens, UniProt P01116, C118A/G12C); test: Coupled Nucleotide Exchange Assay (20 hours)
T1 construct: 1-169
Method: (§1) Purified GDP-bound KRAS protein (aa 1-169), containing either G12C or G12D, as well as C118A amino acid substitutions and an N-terminal His-tag, was pre-incubated in assay buffer (25 mM HEPES pH 7.4, 10 mM MgCl2, and 0.01% Triton X-100) with a compound dose-response titration for 20 hours. Following compound pre-incubation, purified SOS protein (aa 564-1049) and GTP (Roche 10106399001) were added to the assay wells and incubated for an additional 30 min. To determine the extent of inhibition of SOS-mediated nucleotide exchange, purified GST-tagged cRAF (aa 1-149), nickel chelate AlphaLISA acceptor beads (PerkinElmer AL108R), and AlphaScreen glutathione donor beads (PerkinElmer 6765302) were added to the assay wells and incubated for 10 minutes. The assay plates were then read on a PerkinElmer EnVision Multilabel Reader, using AlphaScreen technology, and data were analyzed using a 4-parameter logistic model to calculate IC50 values.

GTPase KRas [G12D,C118A] = GTPase KRas [G12D,C118A] (Homo sapiens, UniProt P01116, C118A/G12D); test: Coupled Nucleotide Exchange Assay (20 hours)
Method: as §1

[2] = target: T1, GTPase KRas [1-169,G12C,C118A]; test: Coupled Nucleotide Exchange Assay (5min)
Method: as §1, with “either 5 min.” for “20 hours.”

T1 sequence (P01116 1-169 G12C/C118A): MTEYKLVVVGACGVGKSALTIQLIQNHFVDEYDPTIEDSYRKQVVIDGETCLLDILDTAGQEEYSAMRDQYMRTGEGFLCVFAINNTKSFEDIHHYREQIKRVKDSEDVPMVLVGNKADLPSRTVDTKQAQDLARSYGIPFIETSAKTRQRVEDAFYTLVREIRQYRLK
Sequence of GTPase KRas [G12D,C118A] (P01116 whole entry G12D/C118A, looked up): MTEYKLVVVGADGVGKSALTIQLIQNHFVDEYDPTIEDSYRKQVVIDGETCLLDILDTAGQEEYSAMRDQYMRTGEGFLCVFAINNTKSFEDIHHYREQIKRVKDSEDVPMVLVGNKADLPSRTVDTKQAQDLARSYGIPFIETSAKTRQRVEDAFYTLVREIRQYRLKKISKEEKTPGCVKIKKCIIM

Row | SMILES | IC50 [1] [µM] | IC50 (GTPase KRas [G12D,C118A]) [µM] | IC50 [2] [µM]
1 | CC(=O)C(=O)N1CCN(c2nc(=O)n(-c3c(C)ccnc3C(C)C)c3nc(-c4ccccc4F)c(Cl)cc23)[C@@H](C)C1 [US20240190862, Example 3] | 31.3 | > 250 | –
2 | Cc1ccnc(C(C)C)c1-n1c(=O)nc(N2CCN(C(=O)C=O)C[C@@H]2C)c2cc(Cl)c(-c3ccccc3F)nc21 [US20240190862, Example 4] | 0.039 | > 250 | 0.61
3 | Cc1ccnc(C(C)C)c1-n1c(=O)nc(N2CCN(C(=O)COc3c(F)cccc3F)C[C@@H]2C)c2cc(Cl)c(-c3ccccc3F)nc21 [US20240190862, Example 8] | 24 | > 250 | –
4 | Cc1ccnc(C(C)C)c1-n1c(=O)nc(N2CCN(C(=O)C=[N+]=[N-])C[C@@H]2C)c2cc(Cl)c(-c3ccccc3F)nc21 [US20240190862, Example 13] | 0.54 | > 250 | 8.59
